# Experimental data reported in patent publication US7098340B2, “Benzyl sulfonamide derivatives” (Warner Lambert Company LLC, priority 2003, dated 2006).
# pIC50: −log10 of the molar value.
# Molecular target: T1, androgen receptor (Homo sapiens, UniProt P10275)
# T1 sequence (P10275 1-920 Q868H): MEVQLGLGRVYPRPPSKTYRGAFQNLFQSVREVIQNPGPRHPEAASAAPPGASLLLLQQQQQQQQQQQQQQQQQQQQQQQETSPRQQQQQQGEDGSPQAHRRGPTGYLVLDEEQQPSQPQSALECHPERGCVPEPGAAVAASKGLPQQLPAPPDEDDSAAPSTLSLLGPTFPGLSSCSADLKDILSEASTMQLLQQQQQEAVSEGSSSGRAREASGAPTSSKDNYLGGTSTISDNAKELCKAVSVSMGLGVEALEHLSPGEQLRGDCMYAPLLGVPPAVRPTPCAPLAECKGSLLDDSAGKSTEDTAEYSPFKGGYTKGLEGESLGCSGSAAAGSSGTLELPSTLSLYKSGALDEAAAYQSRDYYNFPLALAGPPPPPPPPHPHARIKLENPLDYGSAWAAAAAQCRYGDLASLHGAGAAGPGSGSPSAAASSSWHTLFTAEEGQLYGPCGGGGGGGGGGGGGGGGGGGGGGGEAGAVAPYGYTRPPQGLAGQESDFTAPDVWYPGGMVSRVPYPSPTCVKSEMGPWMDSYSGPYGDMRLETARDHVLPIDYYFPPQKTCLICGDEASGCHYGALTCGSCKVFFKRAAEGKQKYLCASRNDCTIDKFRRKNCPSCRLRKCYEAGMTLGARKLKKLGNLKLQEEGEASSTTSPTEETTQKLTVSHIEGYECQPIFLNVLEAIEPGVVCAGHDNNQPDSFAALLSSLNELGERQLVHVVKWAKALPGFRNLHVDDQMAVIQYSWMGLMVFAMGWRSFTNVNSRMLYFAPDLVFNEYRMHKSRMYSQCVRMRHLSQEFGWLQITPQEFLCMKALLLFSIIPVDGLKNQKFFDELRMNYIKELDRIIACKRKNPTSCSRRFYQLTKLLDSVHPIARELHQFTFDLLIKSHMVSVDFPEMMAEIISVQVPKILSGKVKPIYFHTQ
# Assay: AR Antagonist Cell Assay (MMTV-luciferase reporter, DHT-stimulated)
# Format: cell-based
# Conditions: MDA-MB453-MMTV clone 54-19 cells; antagonism of 100 pM DHT, 17 hr, luciferase readout
# How it was run: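 MDA-MB453 cells stably carrying MMTV-ARE-firefly luciferase, in 1% charcoal-treated serum, preincubated 30 min with compound (10 uM or 1 uM) then stimulated with 100 pM DHT for 17 h at 37° C. Luminescence read; result as % inhibition of DHT fold induction.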
row,SMILES,pIC50
1,"COc1cc(CNS(=O)(=O)c2ccc(Cc3ccc4[nH]c(=O)cc(C(F)(F)F)c4c3)cc2)cc(OC)c1 [Example 80, N-(3,5-Dimethoxybenzyl)-4-(2-oxo-4-trifluoromethyl-1,2-dihydroquinolin-6-ylmethyl)-benzenesulfonamide]",< 5.00
2,"O=c1cc(C(F)(F)F)c2cc(Cc3ccc(S(=O)(=O)NC4CCCCCC4)cc3)ccc2o1 [Example 166, N-Cycloheptyl-4-(2-oxo-4-trifluoromethyl-2H-chromen-6-ylmethyl)benzenesulfonamide]",5.16
3,"O=c1cc(C(F)(F)F)c2cc(Cc3ccc(S(=O)(=O)NC4(CO)CCCC4)cc3)ccc2o1 [Example 167, N-(1-Hydroxymethyl-cyclopentyl)-4-(2-oxo-4-trifluoromethyl-2H-chromen-6-ylmethyl)benzenesulfonamide]",< 5.00
4,"O=c1cc(C(F)(F)F)c2cc(Cc3ccc(S(=O)(=O)Nc4cccc(Cc5ccccc5)c4)cc3)ccc2[nH]1 [Example 43, N-(3-Benzylphenyl)-4-(2-oxo-4-trifluoromethyl-1,2-dihydroquinolin-6-ylmethyl)-benzenesulfonamide]",< 5.00
5,"CCOC(=O)Cc1ccc(NS(=O)(=O)c2ccc(Cc3ccc4oc(=O)cc(C(F)(F)F)c4c3)cc2)cc1 [Example 148, {4-[4-(2-Oxo-4-trifluoromethyl-2H-chromen-6-ylmethyl)-benzenesulfonylamino]-phenyl}acetic acid ethyl ester]",5.50
6,CCCCN(CC)S(=O)(=O)c1ccc(Cc2ccc3[nH]c(=O)cc(C(F)(F)F)c3c2)cc1 [Example 6],< 5.00
7,"CC(CNS(=O)(=O)c1ccc(Cc2ccc3[nH]c(=O)cc(C(F)(F)F)c3c2)cc1)c1ccccc1 (centres unmarked) [Example 65, 4-(2-Oxo-4-trifluoromethyl-1,2-dihydroquinolin-6-ylmethyl)-N-(2-phenylpropyl)-benzenesulfonamide]",5.27
8,"O=c1cc(C(F)(F)F)c2cc(Cc3ccc(S(=O)(=O)NCc4cc(Cl)ccc4F)cc3)ccc2[nH]1 [Example 76, N-(5-Chloro-2-fluorobenzyl)-4-(2-oxo-4-trifluoromethyl-1,2-dihydroquinolin-6-ylmethyl)-benzenesulfonamide]",< 5.00
9,"CCCN(CCO)S(=O)(=O)c1ccc(Cc2ccc3oc(=O)cc(C(F)(F)F)c3c2)cc1 [Example 102, N-(2-Hydroxyethyl)-4-(2-oxo-4-trifluoromethyl-2H-chromen-6-ylmethyl)-N-propylbenzenesulfonamide]",5.54
10,"COCCNS(=O)(=O)c1ccc(Cc2ccc3[nH]c(=O)cc(C(F)(F)F)c3c2)cc1 [Example 53, N-(2-Methoxyethyl)-4-(2-oxo-4-trifluoromethyl-1,2-dihydroquinolin-6-ylmethyl)-benzenesulfonamide]",< 5.00
11,"Cc1cccc(NS(=O)(=O)c2ccc(Cc3ccc4oc(=O)cc(C(F)(F)F)c4c3)cc2)c1 [Example 115, 4-(2-Oxo-4-trifluoromethyl-2H-chromen-6-ylmethyl)-N-m-tolylbenzenesulfonamide]",5.69
12,"O=c1cc(C(F)(F)F)c2cc(Cc3ccc(S(=O)(=O)NC4CCN(Cc5ccccc5)CC4)cc3)ccc2[nH]1 [Example 52, N-(1-Benzylpipendin-4-yl)-4-(2-oxo-4-trifluoromethyl-1,2-dihydroquinolin-6-ylmethyl)-benzenesulfonamide]",5.00
13,"CC(C)N(C)S(=O)(=O)c1ccc(Cc2ccc3oc(=O)cc(C(F)(F)F)c3c2)cc1 [Example 101, N-Isopropyl-N-methyl-4-(2-oxo-4-trifluoromethyl-2H-chromen-6-ylmethyl)-benzenesulfonamide]",5.58
14,"Cc1ccc(F)cc1CNS(=O)(=O)c1ccc(Cc2ccc3oc(=O)cc(C(F)(F)F)c3c2)cc1 [Example 185, N-(5-Fluoro-2-methylbenzyl)-4-(2-oxo-4-trifluoromethyl-2H-chromen-6-ylmethyl)-benzenesulfonamide]",5.39
15,"CC(O)c1cccc(NS(=O)(=O)c2ccc(Cc3ccc4oc(=O)cc(C(F)(F)F)c4c3)cc2)c1 (centres unmarked) [Example 133, N-[3-(1-Hydroxyethyl)phenyl]-4-(2-oxo-4-trifluoromethyl-2H-chromen-6-ylmethyl)-benzenesulfonamide]",5.16
16,"CN1CCN(CCCNS(=O)(=O)c2ccc(Cc3ccc4[nH]c(=O)cc(C(F)(F)F)c4c3)cc2)CC1 [Example 75, N-[3-(4-Methylpiperazin-1-yl)propyl]-4-(2-oxo-4-trifluoromethyl-1,2-dihydroquinolin-6-ylmethyl)-benzenesulfonamide]",5.17
17,"CSc1n[nH]c(NS(=O)(=O)c2ccc(Cc3ccc4oc(=O)cc(C(F)(F)F)c4c3)cc2)c1C#N [Example 138, N-(4-Cyano-5-methylsulfanyl-2H-pyrazol-3-yl)-4-(2-oxo-4-trifluoromethyl-2H-chromen-6-ylmethyl)benzenesulfonamide]",5.72
